Data set [1] deals with Tinea Pedis (Athlete's feet). The data set can be described thus: Soak and topical use in a patient with Tinea Pedis. Type of data set: in vivo, human. The note with it: 0.05% peptide formulation for 5 years. The source says: The cream formulation is composed of the excipients cetyl alcohol, isopropyl myristate, stearyl alcohol, butylated hydrosyxtoluene, polyoxyethylene stearyl ether, polyoxyethylene stearyl ether, edetate disodium, and purified water.

A further data set deals with acne. The data set can be described thus: Topical use in a patient with acne. Type of data set: in vivo, human. Conditions: continued use of the formulation for two years. The source says: A person with a two-year history of acne uses topical 5% peptide (SEQ ID NO:5) formulation twice a day for 4 weeks. The cream formulation is composed of the excipients cetyl alcohol, isopropyl myristate, stearyl alcohol, butylated hydroxytolune, polyoxyethylene stearyl ether, polyoxyethylene stearyl ether, edetate disodium, and purified water.

SMILES strings stand for the structures.

For the molecule `N=C(N)NCCC[C@H](NC(=O)[C@H](CCCNC(=N)N)NC(=O)[C@H](CCCNC(=N)N)NC(=O)[C@H](CCC(N)=O)NC(=O)[C@H](CCCNC(=N)N)NC(=O)[C@H](CCCNC(=N)N)NC(=O)[C@H](CCCCN)NC(=O)[C@H](CCCCN)NC(=O)[C@H](CCCNC(=N)N)NC(=O)CNC(=O)[C@H](CCCCN)NC(=O)[C@H](CCCCN)NC(=O)[C@H](CCCCN)NC(=O)[C@H](CCCCN)NC(=O)[C@H](CCCCN)NC(=O)[C@H](CCCCN)NC(=O)[C@H](CCCCN)NC(=O)[C@H](CCCCN)NC(=O)[C@H](CCCCN)NC(=O)[C@H](CCCCN)NC(=O)[C@H](CCCCN)NC(=O)[C@H](CCCCN)NC(=O)[C@H](CCCCN)NC(=O)[C@H](CCCCN)NC(=O)[C@H](CCCCN)NC(=O)CNC(=O)[C@H](CCCNC(=N)N)NC(=O)[C@H](CCCNC(=N)N)NC(=O)[C@H](CCCNC(=N)N)NC(=O)[C@H](CCC(N)=O)NC(=O)[C@H](CCCNC(=N)N)NC(=O)[C@H](CCCNC(=N)N)NC(=O)[C@H](CCCCN)NC(=O)[C@H](CCCCN)NC(=O)[C@@H](N)CCCNC(=N)N)C(=O)O` [SEQ ID NO:5, Arg-Lys-Lys-Arg-Arg-Gln-Arg-Arg-Arg-Gly-(Lys)15-Gly-Arg-Lys-Lys-Arg-Arg-Gln-Arg-Arg-Arg], the “adverse event on continued use” value in data set [1] is reported as “no further breakout or adverse event”. Also, in the data set on acne, the “adverse events on continued use” value is given as “no new breakouts or adverse events are observed”.

The values are drawn from US8623811B2, “Antimicrobial peptide, compositions, and methods of use” (Revance Therapeutics, Inc., priority 2007, dated 2014).
